# Data taken from patent US4945097A, “Aryl-cycloalkyl-alkanolamines for treatment of neurotoxic injury” (priority 1987, dated 1990).
# Columns and labels:
# [1] = tested on: H/I neuronal degeneration in Sprague Dawley rats, 10 days old; format: in vivo
# Experimental: A total of 30 Sprague Dawley rats, 10 days old, were used in this assay. Ten pups (5 control and 5 experimental) were studied on each of 3 separate days, the protocol being the same each day. A unilateral carotid ligation was performed under halothane anesthesia, and the incision was closed with super glue. After recovery from anesthesia, the experimental pups were given a subcutaneous injection of procyclidine (50 mg/kg in 0.1 ml aqueous solution, pH 7.4) and controls an equal volume sc injection of normal saline. Immediately thereafter, all 10 of the pups (half control and half experimental) were placed together in a large sealed transparent chamber and a partial vacuum was gradually created (pressure reduced from 760 to 200 mm Hg over a 1 minute period). A water bath surrounding the bottom half of the chamber kept the temperature inside at 38° C. After 75 minutes the pressure was returned gradually to 760 mm Hg over a 1 minute interval and, after a 2 hour observation period, the pups were anesthetized, the neck incision opened and the ligature removed from the carotid (a piece of tubing had originally been placed between the suture and vessel wall to facilitate subsequent removal of the suture without damage to the vessel wall). While still under anesthesia, the pups were sacrificed by perfusion fixation with aldehyde fixatives. Since the ligature had been removed from the occluded carotid, perfusate was able to distribute equally to the two hemispheres. After 15 minutes of perfusion, the brains were removed and sliced in 1 mm thick transverse slabs which were post fixed in osmium tetroxide, dehydrated in graded ethanols, cleared in toluene and embedded flat in araldite [J. W. Olney, "Glutamate-Induced Neuronal Necrosis In The Infant Mouse Hypothalamus: An Electron Microscopic Study", Neuropthol. Exp. Neurol., 30, 75-90 (1971)]. Sections (1 micron thick) were cut at 40 micron intervals and stained with azure II/methylene blue to permit a systematic microscopic evaluation of all regions of interest in each brain. In a large number of control infant rats (n>100) subjected to the above hypobaric/ischemic conditions, there has been shown a 90% survival rate (10% die in the hypobaric chamber) and a 94% incidence of brain damage which is always confined unilaterally to the side of the carotid ligation [J. M. Olney, "Hypoxia-Ischemia Causes Glutamate-Like Neuropathological changes in Infant Rat Brain", Neurosci Abst., 13, 1553 (1987)]. […] The damage in control rats consists of unilateral disseminated acute neuronal degeneration in some or all of the following regions: medial habenulum, dentate hippocampal gyrus, caudate nucleus, olfactory tubercle, islands of calleja, fronto-parietal neocortex and several thalamic nuclei. Two of 15 control and 2 of 15 experimental infants died in the hypobaric chamber. […] Among the 13 surviving procyclidine-treated pups, 10 had no damage in any of the above brain regions, 3 had small attenuated lesions, limited in two pups to the medial habenulum and in one to the caudate. […] Signs such as ataxia, head and body weaving, prostration and respiratory depression, which are sometimes seen in animals treated with antiexcitotoxic drugs, were not observed.
# [2] = tested on: KA neurotoxicity in 15-day old chick embryo retina; test: NMDA/KA Antagonist Assay: prevention of KA neurotoxicity in chick embryo retina; format: cell-based; design: key: --: A dash signifies no antagonist action; conditions: KA 25 μM, retina incubated 30 min at 37° C in BSS
# Experimental: A 15-day old chick embryo retina, incubated for 30 min. in a balanced sat solution (BSS) containing 1 mM Glu, developed a full lesion resembling that described in the immature mouse retina following s.c. administration of Glu. Other excitotoxin agonists also produce acute lesions within 30 min., each agent being effective at a concentration proportional to its known excitatory and toxic potencies. The pattern of cellular degeneration is restricted in each case to the ganglion cell, inner plexiform and inner nuclear layers, but within these areas certain agonists induce different patterns of degeneration, the differences being most pronounced between NMA and KA. Two agonists were employed in the present test, each at a concentration established previously to be the lowest concentration required to consistently cause a fully-developed retinal lesion: KA (25 μM) and NMA (200 μM). Procyclidine, biperiden and trihexyphenidyl were tested at various concentrations for their ability to prevent KA or NMA neurotoxicity. […] Internal controls in each experiment consisted of at least six specimens being incubated with agonist alone. A typical toxic reaction had to be present in all controls and absent from all experimental specimens in order to qualify as a blocking effect. The method of tissue preparation was as follows: 15-day old chick embryos were decapitated and their eyes removed and cut into quadrants after excising the cornea and removing the lens, vitreous and iris. The retinal quadrants were then gently separated from the pigment epithelium and incubated for 30 min. at 37° C. in BSS to which an agonist or agonist plus antagonist was added. The BSS contained 140 mM Na^+, 5.0 mM K^+, 0.5 mM Ca^++, […], 150 mM Cl^-, 5.6 mM glucose and bicarbonate/phosphate buffer (pH 7.3). After incubation for 30 min., the retinal quadrants were fixed by immersion in phosphate-buffered solution containing 1.5% glutaraldehyde and 1% paraformaldehyde, then additionally fixed in 1% osmium tetroxide, dehydrated in graded ethanols, cleared in toluene and embedded in araldite. […]
# [3] = tested on: NMA neurotoxicity in 15-day old chick embryo retina; test: NMDA/KA Antagonist Assay: prevention of NMA neurotoxicity in chick embryo retina; format: cell-based; conditions: Gallus gallus, 0.5 h; NMA 200 μM, retina incubated 30 min at 37° C in BSS, complete protection in all specimens (n>6); read-out: antagonist potency vs NMA: concentration required to totally prevent a neurotoxic reaction
# Experimental: Two agonists were employed in the present test, each at a concentration established previously to be the lowest concentration required to consistently cause a fully-developed retinal lesion: KA (25 μM) and NMA (200 μM). […] Internal controls in each experiment consisted of at least six specimens being incubated with agonist alone. […] The method of tissue preparation was as follows: 15-day old chick embryos were decapitated and their eyes removed and cut into quadrants after excising the cornea and removing the lens, vitreous and iris. The retinal quadrants were then gently separated from the pigment epithelium and incubated for 30 min. at 37° C. in BSS to which an agonist or agonist plus antagonist was added. The BSS contained 140 mM Na^+, 5.0 mM K^+, 0.5 mM Ca^++, 4 5 mM mG^++, 150 mM Cl^-, 5.6 mM glucose and bicarbonate/phosphate buffer (pH 7.3). After incubation for 30 min., the retinal quadrants were fixed by immersion in phosphate-buffered solution containing 1.5% glutaraldehyde and 1% paraformaldehyde, then additionally fixed in 1% osmium tetroxide, dehydrated in graded ethanols, cleared in toluene and embedded in araldite. Sections were cut 1 micron thick on a Sorval ultratome and stained with Methylene blue/Azure 11 for histopathological evaluation by light microscopy.
SMILES,treated animals with total protection against H/I neuronal degeneration ([1]; 50 mg/kg sc) [%],"number of surviving treated pups with no damage in any of the brain regions ([1]; 50 mg/kg sc, 13 surviving treated pups, carotid ligation plus 75 min hypobaric)","number of surviving treated pups with small attenuated lesions ([1]; 50 mg/kg sc, 13 surviving treated pups, two limited to medial habenulum, one to caudate)","treated animals with markedly reduced severity of neuropathology ([1]; 50 mg/kg sc, the remaining animals) [%]","side effects of the single dose ([1]; rat, in vivo)",antagonist potency vs KA: concentration required to totally prevent a neurotoxic reaction [2],EC100 [3] [µM]
"OC(CCN1CCCC1)(c1ccccc1)C1CCCCC1 (stereo not drawn) [Procyclidine, α-cyclohexyl-α-phenyl-1-pyrrolidinepropanol]",~80,10,3,20,minimal side effects,--,
"OC(CCN1CCCCC1)(c1ccccc1)C1CCCCC1 (stereo not drawn) [Trihexyphenidyl, α-cyclohexyl-α-phenyl-1-piperidinepropanol]",,,,,,--,125
"OC(CCN1CCCCC1)(c1ccccc1)C1CC2C=CC1C2 (stereo not drawn) [Biperiden, α-bicyclo[2.2.1]hept-5-en-2-yl-α-phenyl-1-piperidinepropanol]",,,,,,--,200
